Laboratory results from ChEMBL document CHEMBL5230139, “Inhibitors of Eukaryotic Translational Machinery as Therapeutic Agents” (J Med Chem, 2021).
Numbered stars: 1 amine (or outer) side, 2 acyl side, 3 side chain; on linkers, the order of the positions; unused ones are H or OH. Bridge positions count the residues as written; N and C are the ends. Square brackets hold non-standard residues; d marks the D form. Peptide text beside a SMILES is read from it. X1 = CC[C@H](C)[C@@H](N[*:1])[C@@H](O)CC(=O)O[C@H](C(=O)[C@H](C)C(=O)[*:2])C(C)C; NMeY = CN[C@@H](Cc1ccc(O)cc1)C(=O)O; dNMeL = CN[C@H](CC(C)C)C(=O)O

Experiments:
[1] = Cytotoxicity against mouse NIH/3T3 cells assessed as reduction in cell viability incubated for 4 days by SRB assay; format: toxicity, cell-based, NIH3T3
[2] = Inhibition of EIF1A in human Jurkat cells assessed as reduction in T-cell receptor-mediated IL-2 expression; format: cell-based
[3] = system: HCT-116; assay: Antiproliferative activity against human HCT-116 cells assessed as cell growth inhibition incubated for 24 by 14C-thymidine incorporation assay; format: functional, cell-based
[4] = system: A549; assay: Antiproliferative activity against human A549 cells assessed as cell growth inhibition incubated for 24 by 14C-thymidine incorporation assay; format: functional, cell-based
[5] = system: HCT-116; assay: Antiproliferative activity against human HCT-116 cells assessed as cell growth inhibition; format: functional, cell-based
[6] = system: 3T3-L1; assay: Cytotoxicity against mouse 3T3-L1 adipocyte assessed as inhibition of fat accumulation incubated for 30 mins; format: toxicity, cell-based; conditions: 3T3-L1, 0.5 h
[7] = Inhibition of EIF1A (unknown origin); design: species or system Homo sapiens
[8] = system: L1210; assay: Anticancer activity against mouse L1210 cells allografted in mouse assessed as increase in survival rate; format: functional
[9] = (§1) In vivo activation of dystrophin in mouse H2K mdx cells assessed as increase in production of dystrophin protein; format: functional
[10] = system: P388; assay: Inhibition of protein synthesis in mouse P388 cells measured after 72 hrs; format: functional, cell-based; conditions: P388, 72 h
[11] = system: P388; assay: Antiproliferative activity against mouse P388 cells assessed as cell growth inhibition incubated for 3 days; format: functional, cell-based; conditions: P388, 72 h
[12] = system: HT-29; assay: Antiproliferative activity against human HT-29 cells assessed as cell growth inhibition incubated for 3 days; format: functional, cell-based; conditions: HT-29, 72 h
[13] = system: A549; assay: Antiproliferative activity against human A549 cells assessed as cell growth inhibition incubated for 3 days; format: functional, cell-based; conditions: A549, 72 h
[14] = system: SK-MEL-28; assay: Antiproliferative activity against human SK-MEL-28 cells assessed as cell growth inhibition incubated for 3 days; format: functional, cell-based; conditions: SK-MEL-28, 72 h
[15] = system: P388; assay: Inhibition of DNA synthesis in mouse P388 cells measured after 72 hrs; format: functional, cell-based; conditions: P388, 72 h
[16] = system: P388; assay: Inhibition of RNA synthesis in mouse P388 cells measured after 72 hrs; format: functional, cell-based
[17] = system: HeLa; assay: Antiproliferative activity against human HeLa cells assessed as cell growth inhibition; format: functional, cell-based
[18] = Antiproliferative activity against mouse JB6 Cl 41-5a cells assessed as cell growth inhibition; format: functional, cell-based
[19] = system: SARS-CoV-2; assay: Antiviral activity against SARS-CoV-2 infected in African green monkey Vero E6 cells assessed as inhibition of viral replication; format: functional, organism-based; conditions: Severe acute respiratory syndrome coronavirus 2, Vero C1008
[20] = system: SARS-CoV-2; assay: Antiviral activity against SARS CoV-2 clinical isolate 2019-nCoV infected with African green monkey Vero E6 cells by qRT-PCR analysis; format: functional, organism-based; conditions: Severe acute respiratory syndrome coronavirus 2, 2019-nCoV, Vero C1008
[21] = system: HeLa; assay: Antiproliferative activity against human HeLa cells assessed as cell growth inhibition by [35S] methionine incorporation assay; format: functional, cell-based
[22] = system: OCI-AML-3; assay: Antiproliferative activity against human OCI-AML-3 cells assessed as cell growth inhibition incubated for 48 hrs by MTS assay; format: functional, cell-based; conditions: OCI-AML-3, 48 h
[23] = system: HL-60; assay: Antiproliferative activity against human HL-60 cells assessed as cell growth inhibition incubated for 48 hrs by MTS assay; format: functional, cell-based; conditions: HL-60, 48 h
[24] = system: U-937; assay: Antiproliferative activity against human U-937 cells assessed as cell growth inhibition incubated for 48 hrs by MTS assay; format: functional, cell-based; conditions: U-937, 48 h
[25] = system: NB-4; assay: Antiproliferative activity against human NB-4 cells assessed as cell growth inhibition incubated for 48 hrs by MTS assay; format: functional, cell-based; conditions: NB-4, 48 h
[26] = system: OCI-AML2; assay: Antiproliferative activity against human OCI-AML2 cells assessed as cell growth inhibition incubated for 48 hrs by MTS assay; format: functional, cell-based; conditions: OCI-AML2, 48 h
[27] = system: H2K mdx; assay: as §1; format: functional
[28] = system: Cystic fibrosis transmembrane conductance regulator (Homo sapiens), P13569 [UNDEFINED MUTATION]; assay: In vivo activation of human […]-G542X mutant xenografted in mouse model assessed as induction of […] channel expression at 34 mg/kg administered daily; format: functional, organism-based
Cystic fibrosis transmembrane conductance regulator (Homo sapiens), P13569 [UNDEFINED MUTATION], sequence (P13569 whole entry, looked up): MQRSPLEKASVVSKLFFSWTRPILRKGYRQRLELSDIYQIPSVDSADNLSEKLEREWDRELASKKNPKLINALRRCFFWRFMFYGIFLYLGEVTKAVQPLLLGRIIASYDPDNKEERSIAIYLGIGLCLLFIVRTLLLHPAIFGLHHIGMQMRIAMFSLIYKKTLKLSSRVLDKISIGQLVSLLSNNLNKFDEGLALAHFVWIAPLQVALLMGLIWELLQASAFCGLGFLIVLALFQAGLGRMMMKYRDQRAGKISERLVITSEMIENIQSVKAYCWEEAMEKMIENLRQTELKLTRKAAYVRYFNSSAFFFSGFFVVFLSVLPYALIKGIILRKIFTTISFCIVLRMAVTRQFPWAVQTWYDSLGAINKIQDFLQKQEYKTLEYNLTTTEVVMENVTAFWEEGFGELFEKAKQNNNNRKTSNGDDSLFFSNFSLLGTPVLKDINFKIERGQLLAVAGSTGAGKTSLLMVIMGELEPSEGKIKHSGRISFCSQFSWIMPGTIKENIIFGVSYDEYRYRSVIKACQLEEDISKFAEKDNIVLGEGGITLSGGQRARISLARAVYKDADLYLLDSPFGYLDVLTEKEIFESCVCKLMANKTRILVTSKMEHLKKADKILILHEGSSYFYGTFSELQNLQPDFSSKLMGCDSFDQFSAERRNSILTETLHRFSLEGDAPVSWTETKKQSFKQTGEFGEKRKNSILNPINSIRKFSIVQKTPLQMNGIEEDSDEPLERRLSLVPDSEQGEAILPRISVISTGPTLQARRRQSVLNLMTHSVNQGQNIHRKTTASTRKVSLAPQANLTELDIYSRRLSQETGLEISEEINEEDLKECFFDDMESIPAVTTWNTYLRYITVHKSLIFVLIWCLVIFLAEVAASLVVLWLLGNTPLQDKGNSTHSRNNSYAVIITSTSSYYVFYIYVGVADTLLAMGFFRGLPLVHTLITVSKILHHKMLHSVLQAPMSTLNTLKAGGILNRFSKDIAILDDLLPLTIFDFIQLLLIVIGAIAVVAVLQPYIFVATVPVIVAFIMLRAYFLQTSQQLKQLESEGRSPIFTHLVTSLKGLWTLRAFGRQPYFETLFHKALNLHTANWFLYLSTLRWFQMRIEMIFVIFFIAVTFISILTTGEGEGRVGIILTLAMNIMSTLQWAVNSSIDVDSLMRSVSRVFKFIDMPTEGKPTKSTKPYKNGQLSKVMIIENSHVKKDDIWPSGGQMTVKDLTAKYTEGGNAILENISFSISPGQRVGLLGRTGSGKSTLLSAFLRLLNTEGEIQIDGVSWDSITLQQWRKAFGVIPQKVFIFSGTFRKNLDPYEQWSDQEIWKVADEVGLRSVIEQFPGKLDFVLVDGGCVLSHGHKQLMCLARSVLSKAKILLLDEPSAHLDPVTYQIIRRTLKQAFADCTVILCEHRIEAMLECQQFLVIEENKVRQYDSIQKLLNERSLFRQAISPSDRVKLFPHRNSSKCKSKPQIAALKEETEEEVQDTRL

With `CONC(=O)[C@H]1[C@@H](O)[C@@]2(O)c3c(OC)cc(OC)cc3O[C@@]2(c2ccc(OC)cc2)[C@@H]1c1ccccc1` the IC50 at 4 days [1] was 9 nM.
Work on `C/C1=C/C=C\C(=O)O[C@H](/C=C(C)/C=C/C=C/CN(C)C)Cc2csc(n2)CCCCC(=O)O[C@H](C)C1` yielded an IC50 [2] of 0.8 nM.
`COc1ccc([C@@]23Oc4cc(OC)cc(OC)c4[C@@]24NC(C)=N[C@@]4(O)[C@H](C(=O)N(C)OC)[C@H]3c2ccccc2)cc1` gave an IC50 at 4 days [1] of 2 nM.
Work on `COc1cc(C[C@H]2NC(=O)[C@H](C(C)C)N(C)C(=O)/C=C\C[C@@H](OC)/C(C)=C/C=C/[C@@H](C)[C@@H](c3ccccc3)OC(=O)[C@H](C(C)C)NC2=O)ccc1O` yielded an IC50 [3] of 49 nM and an IC50 [4] of 20 nM.
`CC[C@H](C)[C@H]1NC(=O)[C@@H]([C@H](O)C(C)C)NC(=O)[C@@H](C)N(C)C(=O)[C@H](C)N(C)C(=O)[C@H](CC(C)C)NC(=O)[C@H](CC(C)C)N(C)C(=O)[C@H](C)N(C)C1=O` gave an IC50 [5] of 71 nM and an EC50 [6] of 20 nM.
With `CC[C@H](C)[C@H]1NC(=O)[C@@H](NC(=O)[C@@H](CC(C)C)N(C)C(=O)[C@@H]2CCCN2C(C)=O)[C@@H](C)OC(=O)[C@H](Cc2ccc(OC)cc2)N(C)C(=O)[C@@H]2CCCN2C(=O)[C@H](CC(C)C)NC(=O)[C@@H](C)C(=O)[C@H](C(C)C)OC(=O)C[C@@H]1O` (Ac-P[dNMeL]T[X1]LP[NMeY](Me); ester 3-C) the IC50 [7] was 100 nM.
In the case of `CN1C(=O)N[C@H]2[C@@H]3NC(=O)c4ccc(Br)n4[C@@H]3C[C@]21O` [AGELASTATIN A], the Survival [8] is reported as 63%.
With `O=C(O)c1cccc(-c2noc(-c3ccccc3F)n2)c1` [ATALUREN] the Activity [9] was 20%.
For `CC[C@H](C)[C@H]1NC(=O)[C@@H](NC(=O)[C@@H](CC(C)C)NC)[C@@H](C)OC(=O)[C@H](Cc2ccc(OC)cc2)N(C)C(=O)[C@@H]2CCCN2C(=O)[C@H](CC(C)C)NC(=O)[C@@H](C)C(=O)[C@H](C(C)C)OC(=O)C[C@@H]1O` [DIDEMNIN A] (H-[dNMeL]T[X1]LP[NMeY](Me); ester 2-C), the IC50 [10] was 400 nM, the IC50 [11] was 10 nM and the IC50 [12] was 20 nM. The IC50 [13] was 12 nM, the IC50 [7] was 400 nM and the IC50 [14] was 20 nM. For the same molecule, the IC50 [15] was 1000 nM and the IC50 ([16]; p388) was “Not Active”.
In the case of `C=C1C[C@](OC)([C@H](O)C(=O)N[C@H]2OCO[C@H]3[C@@H]2O[C@H](C[C@H](O)CO)C(C)(C)[C@@H]3OC)O[C@H](C)[C@@H]1C` [MYCALAMIDE A], the IC50 [17] is reported as 5 nM and the IC50 [18] is reported as 1 nM.
`COC(=O)C[C@](O)(CCCC(C)(C)O)C(=O)O[C@@H]1C(OC)=C[C@]23CCCN2CCc2cc4c(cc2[C@H]13)OCO4` [OMACETAXINE MEPESUCCINATE] showed an EC50 [19] of 60 nM.
`CC[C@H](C)[C@H]1NC(=O)[C@@H](NC(=O)[C@@H](CC(C)C)N(C)C(=O)[C@@H]2CCCN2C(=O)C(C)=O)[C@@H](C)OC(=O)[C@H](Cc2ccc(OC)cc2)N(C)C(=O)[C@@H]2CCCN2C(=O)[C@H](CC(C)C)NC(=O)[C@@H](C)C(=O)[C@H](C(C)C)OC(=O)C[C@@H]1O` [PLITIDEPSIN] gave an IC50 [10] of 500 nM, an IC50 [11] of 0.2 nM and an IC50 [12] of 0.5 nM. It also gave an IC50 [13] of 0.2 nM, an IC50 [7] of 500 nM and an IC50 [14] of 0.5 nM. For the same molecule, the IC50 [15] was 100 nM and the IC50 ([16]; Mus musculus, P388, 72 h, read-out: IC50) was over 1000 nM.
With `NC(=O)c1ncn([C@@H]2O[C@H](CO)[C@@H](O)[C@H]2O)n1` [RIBAVIRIN] the EC50 [20] was 110 µM.
For `COc1ccc([C@@]23Oc4cc(OC)cc(OC)c4[C@]2(O)[C@H](O)[C@H](C(=O)N(C)C)[C@H]3c2ccccc2)cc1` [ROCAGLAMIDE], the IC50 [21] was 100 nM.
With `COC(=O)[C@H]1[C@@H](O)[C@@]2(O)c3c(OC)cc(O[C@@H]4O[C@@H]([C@H](O)CO)CO[C@H]4OC)cc3O[C@@]2(c2ccc(OC)cc2)[C@@H]1c1ccccc1` [SILVESTROL] the IC50 [22] was 4 nM, the IC50 [21] was 20 nM and the IC50 [23] was 4 nM. It also gave an IC50 [24] of 4 nM, an IC50 [25] of 4 nM and an IC50 [26] of 4 nM.
GENTAMICIN gave an Activity [27] of 10% and an Activity [28] of 10%.
